Measurements taken from the NIST ThermoML archive (doi:10.1016/j.jct.2015.08.021).

How the values were obtained:
[1] = refractive index (Na D-line) (dimensionless); xn = mol fraction of the nth substance listed; details: 101.3 kPa, Liquid, Standard Abbe refractometry
[2] = relative permittivity at various frequencies (dimensionless); xn = mol fraction of the nth substance listed; details: 101.3 kPa, Liquid, Frequency=0.1 MHz, Coaxial cylinder capacitor
[3] = 298.15 K; 101.33 kPa; Liquid; Vibrating tube method
[4] = refractive index (Na D-line) (dimensionless); details: 101.3 kPa, Liquid, Standard Abbe refractometry
[5] = relative permittivity at various frequencies (dimensionless); details: 101.3 kPa, Liquid, Frequency=0.1 MHz, Coaxial cylinder capacitor

CCCCCO [pentan-1-ol] + OCCCCO
x2 = 0
Details	refractive index, 298.15 K	refractive index, 308.15 K	refractive index, 318.15 K	relative permittivity, 298.15 K	relative permittivity, 308.15 K	relative permittivity, 318.15 K
[1]	1.4082	1.4041	1.4001	–	–	–
[2]	–	–	–	15.11	13.72	12.391

OCCCCO [1,4-butanediol] + CC(C)CCO
Details	refractive index, 298.15 K	refractive index, 308.15 K	refractive index, 318.15 K	relative permittivity, 298.15 K	relative permittivity, 308.15 K	relative permittivity, 318.15 K
[1], x1 = 0.101	1.4088	1.4052	1.4014	–	–	–
[1], x1 = 0.2	1.4123	1.4087	1.4055	–	–	–
[1], x1 = 0.299	1.4165	1.4122	1.4093	–	–	–
[1], x1 = 0.4	1.4203	1.4166	1.4137	–	–	–
[1], x1 = 0.5	1.4244	1.4207	1.4175	–	–	–
[1], x1 = 0.6	1.4291	1.4252	1.4222	–	–	–
[1], x1 = 0.699	1.4325	1.4295	1.426	–	–	–
[1], x1 = 0.801	1.4372	1.4336	1.4309	–	–	–
[1], x1 = 0.9	1.4409	1.4376	1.4353	–	–	–
[1], x1 = 1	1.4445	1.4417	1.4393	–	–	–
[2], x1 = 0.101	–	–	–	15.856	14.411	13.099
[2], x1 = 0.2	–	–	–	16.963	15.522	14.197
[2], x1 = 0.299	–	–	–	18.26	16.765	15.4
[2], x1 = 0.4	–	–	–	19.772	18.22	16.76
[2], x1 = 0.5	–	–	–	21.409	19.78	18.225
[2], x1 = 0.6	–	–	–	23.176	21.499	19.794
[2], x1 = 0.699	–	–	–	25.066	23.351	21.52
[2], x1 = 0.801	–	–	–	27.119	25.335	23.403
[2], x1 = 0.9	–	–	–	29.28	27.371	25.287
[2], x1 = 1	–	–	–	31.587	29.482	27.203

C1COCCO1 [1,4-dioxane] + CCCCCO
Details	refractive index, 298.15 K	refractive index, 308.15 K	refractive index, 318.15 K	relative permittivity, 298.15 K	relative permittivity, 308.15 K	relative permittivity, 318.15 K
[1], x2 = 0	1.4202	1.4144	1.4086	–	–	–
[1], x2 = 0.1	1.4181	1.4121	1.407	–	–	–
[1], x2 = 0.2	1.4161	1.4103	1.4055	–	–	–
[1], x2 = 0.3	1.4144	1.4088	1.4042	–	–	–
[1], x2 = 0.4	1.4128	1.4074	1.403	–	–	–
[1], x2 = 0.501	1.4114	1.4063	1.4021	–	–	–
[1], x2 = 0.599	1.4104	1.4055	1.4014	–	–	–
[1], x2 = 0.699	1.4096	1.4048	1.4008	–	–	–
[1], x2 = 0.801	1.409	1.4044	1.4004	–	–	–
[1], x2 = 0.9	1.4086	1.4042	1.4002	–	–	–
[2], x2 = 0	–	–	–	2.229	2.209	2.187
[2], x2 = 0.1	–	–	–	2.657	2.587	2.527
[2], x2 = 0.2	–	–	–	3.255	3.124	3.024
[2], x2 = 0.3	–	–	–	4.016	3.77	3.63
[2], x2 = 0.4	–	–	–	4.941	4.63	4.402
[2], x2 = 0.501	–	–	–	6.082	5.652	5.34
[2], x2 = 0.599	–	–	–	7.387	6.781	6.332
[2], x2 = 0.699	–	–	–	8.915	8.18	7.529
[2], x2 = 0.801	–	–	–	10.714	9.793	8.951
[2], x2 = 0.9	–	–	–	12.796	11.622	10.578

CC(C)CCO [3-methylbutan-1-ol] + OCCCCO
x2 = 0
Details	refractive index, 298.15 K	refractive index, 308.15 K	refractive index, 318.15 K	relative permittivity, 298.15 K	relative permittivity, 308.15 K	relative permittivity, 318.15 K
[1]	1.4048	1.4011	1.3973	–	–	–
[2]	–	–	–	14.93	13.402	12.051

OCCCCO [1,4-butanediol]
Details	mass density [kg/m3]
[3]	1013.4

Details	refractive index, 298.15 K	refractive index, 308.15 K	refractive index, 318.15 K	relative permittivity, 298.15 K	relative permittivity, 308.15 K	relative permittivity, 318.15 K
[4]	1.4445	1.4417	1.4393	–	–	–
[5]	–	–	–	31.587	29.482	27.203

CC(C)CCO [3-methylbutan-1-ol]
Details	mass density [kg/m3]
[3]	807.16

Details	refractive index, 298.15 K	refractive index, 308.15 K	refractive index, 318.15 K	relative permittivity, 298.15 K	relative permittivity, 308.15 K	relative permittivity, 318.15 K
[4]	1.4048	1.4011	1.3973	–	–	–
[5]	–	–	–	14.93	13.402	12.051

OCCCCO [1,4-butanediol] + CCCCCO
Details	refractive index, 298.15 K	refractive index, 308.15 K	refractive index, 318.15 K	relative permittivity, 298.15 K	relative permittivity, 308.15 K	relative permittivity, 318.15 K
[1], x1 = 0.1	1.4118	1.4081	1.4051	–	–	–
[1], x1 = 0.2	1.4147	1.4114	1.4089	–	–	–
[1], x1 = 0.3	1.4185	1.4149	1.4119	–	–	–
[1], x1 = 0.403	1.4226	1.4193	1.4166	–	–	–
[1], x1 = 0.501	1.4256	1.4234	1.4201	–	–	–
[1], x1 = 0.601	1.4302	1.4267	1.4242	–	–	–
[1], x1 = 0.701	1.4334	1.431	1.428	–	–	–
[1], x1 = 0.8	1.4375	1.4345	1.4324	–	–	–
[1], x1 = 0.9	1.441	1.4382	1.4358	–	–	–
[1], x1 = 1	1.4445	1.4417	1.4393	–	–	–
[2], x1 = 0.1	–	–	–	16.037	14.699	13.391
[2], x1 = 0.2	–	–	–	17.171	15.827	14.452
[2], x1 = 0.3	–	–	–	18.467	17.054	15.646
[2], x1 = 0.403	–	–	–	19.924	18.471	17.026
[2], x1 = 0.501	–	–	–	21.49	19.97	18.416
[2], x1 = 0.601	–	–	–	23.245	21.632	19.971
[2], x1 = 0.701	–	–	–	25.108	23.459	21.616
[2], x1 = 0.8	–	–	–	27.105	25.339	23.393
[2], x1 = 0.9	–	–	–	29.265	27.356	25.251
[2], x1 = 1	–	–	–	31.587	29.482	27.203

CCCCCO [pentan-1-ol] + C1COCCO1
x1 = 1
Details	refractive index, 298.15 K	refractive index, 308.15 K	refractive index, 318.15 K	relative permittivity, 298.15 K	relative permittivity, 308.15 K	relative permittivity, 318.15 K
[1]	1.4082	1.4041	1.4001	–	–	–
[2]	–	–	–	15.11	13.72	12.391

CC(C)CCO [3-methylbutan-1-ol] + C1COCCO1
Details	refractive index, 298.15 K	refractive index, 308.15 K	refractive index, 318.15 K	relative permittivity, 298.15 K	relative permittivity, 308.15 K	relative permittivity, 318.15 K
[1], x1 = 0.1	1.4177	1.4125	1.4069	–	–	–
[1], x1 = 0.203	1.4151	1.4105	1.4054	–	–	–
[1], x1 = 0.301	1.4133	1.4088	1.4039	–	–	–
[1], x1 = 0.4	1.4114	1.4072	1.4026	–	–	–
[1], x1 = 0.5	1.4098	1.4057	1.4012	–	–	–
[1], x1 = 0.601	1.4084	1.4045	1.4001	–	–	–
[1], x1 = 0.699	1.4072	1.4034	1.3992	–	–	–
[1], x1 = 0.8	1.4063	1.4023	1.3984	–	–	–
[1], x1 = 0.899	1.4054	1.4013	1.3978	–	–	–
[1], x1 = 1	1.4048	1.4011	1.3973	–	–	–
[2], x1 = 0.1	–	–	–	2.694	2.634	2.57
[2], x1 = 0.203	–	–	–	3.292	3.168	3.055
[2], x1 = 0.301	–	–	–	4.014	3.804	3.632
[2], x1 = 0.4	–	–	–	4.91	4.629	4.376
[2], x1 = 0.5	–	–	–	6.024	5.611	5.239
[2], x1 = 0.601	–	–	–	7.327	6.743	6.232
[2], x1 = 0.699	–	–	–	8.82	8.037	7.343
[2], x1 = 0.8	–	–	–	10.64	9.655	8.702
[2], x1 = 0.899	–	–	–	12.649	11.434	10.315
[2], x1 = 1	–	–	–	14.93	13.402	12.051

CCCCCO [pentan-1-ol]
Details	mass density [kg/m3]
[3]	811.1

Details	refractive index, 298.15 K	refractive index, 308.15 K	refractive index, 318.15 K	relative permittivity, 298.15 K	relative permittivity, 308.15 K	relative permittivity, 318.15 K
[4]	1.4082	1.4041	1.4001	–	–	–
[5]	–	–	–	15.11	13.72	12.391

C1COCCO1 [1,4-dioxane] + CC(C)CCO
x2 = 0
Details	refractive index, 298.15 K	refractive index, 308.15 K	refractive index, 318.15 K	relative permittivity, 298.15 K	relative permittivity, 308.15 K	relative permittivity, 318.15 K
[1]	1.4202	1.4144	1.4086	–	–	–
[2]	–	–	–	2.229	2.209	2.187

C1COCCO1 [1,4-dioxane]
Details	mass density [kg/m3]
[3]	1027.86

Details	refractive index, 298.15 K	refractive index, 308.15 K	refractive index, 318.15 K	relative permittivity, 298.15 K	relative permittivity, 308.15 K	relative permittivity, 318.15 K
[4]	1.4202	1.4144	1.4086	–	–	–
[5]	–	–	–	2.229	2.209	2.187
